These results are taken from article PMC3119665, “A New Drug Design Targeting the Adenosinergic System for Huntington's Disease” (PLoS ONE, 2011).

The target in one series is T1, A2B adenosine receptor (Homo sapiens, UniProt P29275).
T1 construct: MDS Pharma Services Taiwan
T1 sequence (P29275 1-332): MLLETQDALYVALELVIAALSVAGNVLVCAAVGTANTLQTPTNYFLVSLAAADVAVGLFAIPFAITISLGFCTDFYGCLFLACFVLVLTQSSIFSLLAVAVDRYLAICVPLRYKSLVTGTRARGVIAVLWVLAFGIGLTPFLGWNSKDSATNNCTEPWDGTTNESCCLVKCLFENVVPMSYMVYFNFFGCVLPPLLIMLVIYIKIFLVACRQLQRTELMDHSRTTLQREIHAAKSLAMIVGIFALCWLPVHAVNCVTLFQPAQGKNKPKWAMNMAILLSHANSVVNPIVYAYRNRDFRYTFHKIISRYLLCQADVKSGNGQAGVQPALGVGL
In words: Radioligand binding assay.

The target of the next series is T2, Angiotensin AT2 (Homo sapiens, UniProt P50052).
T2 construct: purchased MDS Pharma Services Taiwan
T2 sequence (P50052 whole entry): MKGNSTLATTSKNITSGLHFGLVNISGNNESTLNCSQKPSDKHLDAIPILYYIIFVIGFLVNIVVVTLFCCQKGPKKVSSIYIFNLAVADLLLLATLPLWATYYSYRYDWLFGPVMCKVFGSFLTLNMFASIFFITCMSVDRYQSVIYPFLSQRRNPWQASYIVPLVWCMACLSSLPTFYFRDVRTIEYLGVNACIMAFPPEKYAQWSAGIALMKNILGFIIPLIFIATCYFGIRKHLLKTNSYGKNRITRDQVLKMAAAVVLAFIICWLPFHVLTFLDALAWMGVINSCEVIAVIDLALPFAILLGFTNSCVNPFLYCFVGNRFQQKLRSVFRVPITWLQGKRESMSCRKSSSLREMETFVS
Put plainly: Radioligand binding panel (Table S1). Particulars: 10 μM T1-11, n 2.

Another series deals with T3, APJ (Homo sapiens, UniProt P35414).
T3 construct: purchased MDS Pharma Services Taiwan
T3 sequence (P35414 whole entry): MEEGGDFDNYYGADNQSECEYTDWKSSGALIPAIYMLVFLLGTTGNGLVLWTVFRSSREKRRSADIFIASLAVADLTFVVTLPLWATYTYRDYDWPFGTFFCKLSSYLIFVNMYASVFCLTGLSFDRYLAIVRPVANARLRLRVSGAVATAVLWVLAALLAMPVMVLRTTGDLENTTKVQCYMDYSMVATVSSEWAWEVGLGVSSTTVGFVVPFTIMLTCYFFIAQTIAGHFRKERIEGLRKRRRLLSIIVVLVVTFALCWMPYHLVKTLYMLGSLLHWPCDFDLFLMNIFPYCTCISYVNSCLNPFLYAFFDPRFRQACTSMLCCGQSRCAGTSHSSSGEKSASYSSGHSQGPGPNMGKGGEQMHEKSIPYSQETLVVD
In words: Radioligand binding panel (Table S1). The following applies: 10 μM T1-11, n 2.

A further series concerns the target T4, Bombesin BB2 (Homo sapiens, UniProt P30550).
T4 construct: purchased MDS Pharma Services Taiwan
In words: Radioligand binding panel (Table S1). The following applies: 10 μM T1-11, n 2.

Series [1] concerns Calcium Channel L-Type, Dihydropyridine. In words: Radioligand binding panel (Table S1). Also noted: species or system rat. The following applies: 10 μM T1-11, n 2.
A further series deals with Colchicine. In words: Radioligand binding panel (Table S1). The following applies: 10 μM T1-11, n 2. Also noted: species or system rat. The procedure: Radoligand binding assays were performed by MDS Pharma Services Taiwan (Taipei, Taiwan) using standard binding protocols. For the binding assay of the A2AR [67], membrane proteins collected from HEK293 cells overexpressing the human A2AR were incubated in reaction buffer [50 mM Tris-HCl (pH 7.4), 10 mM MgCl2, 1 mM EDTA, and 2 U/mL adenosine deaminase] containing ^3H-CGS21680 (50 nM) for 90 min at 25°C. Nonspecific binding was assessed in the presence of 50 µM adenosine- 5′-N-ethylcarboxamide. […] Nonspecific binding was assessed in the presence of 1 µM IB-MECA (Tocris Bioscience, Ellisville, MS, USA).

The target in the next series is T5, Endothelin ETB (Homo sapiens, UniProt P24530).
T5 construct: purchased MDS Pharma Services Taiwan
T5 sequence (P24530 27-442): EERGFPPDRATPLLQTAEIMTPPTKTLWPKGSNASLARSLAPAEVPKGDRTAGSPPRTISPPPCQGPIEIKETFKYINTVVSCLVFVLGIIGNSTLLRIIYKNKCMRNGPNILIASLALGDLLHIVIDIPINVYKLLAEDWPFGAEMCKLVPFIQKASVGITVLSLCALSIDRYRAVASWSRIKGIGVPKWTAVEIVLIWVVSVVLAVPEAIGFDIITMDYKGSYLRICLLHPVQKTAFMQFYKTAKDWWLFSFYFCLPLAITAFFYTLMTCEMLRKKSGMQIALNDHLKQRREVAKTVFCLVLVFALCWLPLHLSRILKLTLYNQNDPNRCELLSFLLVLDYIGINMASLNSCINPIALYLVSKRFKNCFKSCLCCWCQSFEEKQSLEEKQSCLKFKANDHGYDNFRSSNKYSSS
Put plainly: Radioligand binding panel (Table S1). The following applies: 10 μM T1-11, n 2.

Series [2] deals with GABAA, Chloride Channel, TBPS. In words: Radioligand binding panel (Table S1). Also noted: species or system rat. The following applies: 10 μM T1-11, n 2.
The target of another series is T6, Neuromedin U NMU2 (Homo sapiens, UniProt Q9GZQ4).
T6 construct: purchased MDS Pharma Services Taiwan
T6 sequence (Q9GZQ4 whole entry): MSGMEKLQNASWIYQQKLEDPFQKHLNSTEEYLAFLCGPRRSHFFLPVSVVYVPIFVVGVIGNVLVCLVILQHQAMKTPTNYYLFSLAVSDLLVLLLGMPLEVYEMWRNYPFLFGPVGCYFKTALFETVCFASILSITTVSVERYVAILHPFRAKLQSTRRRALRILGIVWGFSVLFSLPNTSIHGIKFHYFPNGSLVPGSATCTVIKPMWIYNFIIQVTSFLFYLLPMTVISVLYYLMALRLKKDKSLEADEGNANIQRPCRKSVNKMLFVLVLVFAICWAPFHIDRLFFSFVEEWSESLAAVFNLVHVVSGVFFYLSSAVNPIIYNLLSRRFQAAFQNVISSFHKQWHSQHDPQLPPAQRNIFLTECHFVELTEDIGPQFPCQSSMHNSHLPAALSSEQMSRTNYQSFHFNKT
In words: Radioligand binding panel (Table S1). Particulars: 10 μM T1-11, n 2.

For the next series, the system named is Opiate, Non-Selective. In words: Radioligand binding panel (Table S1). The following applies: 10 μM T1-11, n 2. Also noted: species or system rat.
Another series addresses T7, Orexin OX 2 (Homo sapiens, UniProt O43614).
T7 construct: purchased MDS Pharma Services Taiwan
Put plainly: Radioligand binding panel (Table S1). Particulars: 10 μM T1-11, n 2.

For series [3], the system named is Phosphodiesterase PDE1. Put plainly: Radioligand binding panel (Table S1). More on the design: species or system bovine. Particulars: 10 μM T1-11, n 2.
In series [4] the test system is Phosphodiesterase PDE1. Put plainly: Radioligand binding panel (Table S1). Also noted: species or system human. The following applies: 10 μM T1-11, n 2.
A further series addresses T8, hERG potassium channel (Homo sapiens, UniProt Q12809).
T8 construct: purchased MDS Pharma Services Taiwan
In words: Radioligand binding panel (Table S1). The following applies: 10 μM T1-11, n 2.

The target of series [5] is T9, Prostanoid, Thromboxane A2 (TP) (Homo sapiens, UniProt P21731).
T9 construct: purchased MDS Pharma Services Taiwan
T9 sequence (P21731 whole entry): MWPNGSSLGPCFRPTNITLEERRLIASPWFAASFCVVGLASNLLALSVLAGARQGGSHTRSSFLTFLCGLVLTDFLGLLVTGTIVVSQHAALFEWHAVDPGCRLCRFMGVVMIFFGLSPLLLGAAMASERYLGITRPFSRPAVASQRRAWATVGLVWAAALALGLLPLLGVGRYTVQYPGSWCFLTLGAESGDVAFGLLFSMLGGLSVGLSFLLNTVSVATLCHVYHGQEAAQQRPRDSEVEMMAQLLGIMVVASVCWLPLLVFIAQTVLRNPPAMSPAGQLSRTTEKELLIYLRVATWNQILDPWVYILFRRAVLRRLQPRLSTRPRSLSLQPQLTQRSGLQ
Put plainly: Radioligand binding panel (Table S1). The following applies: 10 μM T1-11, n 2.

Series [6] deals with Serotonin (5-Hydroxytryptamine) 5-HT1, Non-Selective. In words: Radioligand binding panel (Table S1). Particulars: 10 μM T1-11, n 2. Also noted: species or system rat.
The target of the next series is T10, Tachykinin NK3 (Homo sapiens, UniProt P29371).
T10 construct: purchased MDS Pharma Services Taiwan
T10 sequence (P29371 whole entry): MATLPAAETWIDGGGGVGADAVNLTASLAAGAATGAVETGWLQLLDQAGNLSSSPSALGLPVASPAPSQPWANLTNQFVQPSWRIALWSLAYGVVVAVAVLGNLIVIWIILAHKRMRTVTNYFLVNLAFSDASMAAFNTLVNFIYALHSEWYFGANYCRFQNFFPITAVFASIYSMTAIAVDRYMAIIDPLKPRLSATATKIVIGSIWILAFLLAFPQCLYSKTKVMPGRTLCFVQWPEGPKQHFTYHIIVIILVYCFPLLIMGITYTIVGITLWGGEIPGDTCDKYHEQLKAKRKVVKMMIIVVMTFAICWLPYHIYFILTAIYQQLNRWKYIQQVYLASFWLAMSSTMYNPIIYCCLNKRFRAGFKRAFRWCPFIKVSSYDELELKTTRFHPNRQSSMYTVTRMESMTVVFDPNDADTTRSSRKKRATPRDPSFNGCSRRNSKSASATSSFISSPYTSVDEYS
Put plainly: Radioligand binding panel (Table S1). Particulars: 10 μM T1-11, n 2.

The target of the next series is T11, Transporter, Choline (Rattus norvegicus, UniProt Q9JMD7).
T11 construct: purchased MDS Pharma Services Taiwan
T11 sequence (Q9JMD7 whole entry): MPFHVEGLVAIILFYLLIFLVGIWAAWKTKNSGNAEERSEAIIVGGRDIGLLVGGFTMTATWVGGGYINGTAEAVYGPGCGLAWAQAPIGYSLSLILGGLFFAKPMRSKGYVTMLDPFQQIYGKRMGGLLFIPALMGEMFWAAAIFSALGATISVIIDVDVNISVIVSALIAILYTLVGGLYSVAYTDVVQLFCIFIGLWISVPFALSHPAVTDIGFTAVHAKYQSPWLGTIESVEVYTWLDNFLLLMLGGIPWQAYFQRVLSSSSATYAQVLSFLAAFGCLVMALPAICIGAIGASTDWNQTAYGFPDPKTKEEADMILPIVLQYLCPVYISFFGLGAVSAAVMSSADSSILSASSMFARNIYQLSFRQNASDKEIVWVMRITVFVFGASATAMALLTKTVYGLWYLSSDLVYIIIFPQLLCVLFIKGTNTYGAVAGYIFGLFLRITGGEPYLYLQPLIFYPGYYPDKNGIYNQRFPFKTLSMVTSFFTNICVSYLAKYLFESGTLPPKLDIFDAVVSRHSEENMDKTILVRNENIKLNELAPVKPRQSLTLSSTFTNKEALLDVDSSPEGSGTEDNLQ
Put plainly: Radioligand binding panel (Table S1). The following applies: 10 μM T1-11, n 2.

The target of another series is T12, Urotensin II (Homo sapiens, UniProt Q9UKP6).
T12 construct: purchased MDS Pharma Services Taiwan
Put plainly: Radioligand binding panel (Table S1). Particulars: 10 μM T1-11, n 2.

Series [7] addresses T13, adenosine transporter (ENT1) (Rattus norvegicus, UniProt O54698).
T13 construct: endogenous in cells; host or cells: PC12
In words: Adenosine uptake by PC12 cells. It counts as cell-based. The procedure: For adenosine uptake of PC12, cells were seeded approximately 16 h before each uptake assay at ∼2×10^5 cells per well in 24-well plates coated with poly-L-lysine. To perform adenosine uptake assays, cells were washed with Krebs Ringer-Henseleit buffer [125 mM NaCl, 4.8 mM KCl, 1.3 mM CaCl2, 1.2 mM MgSO4, 1.2 mM KH2PO4, 5.6 mM glucose, 10 µM pargyline, and 10 mM HEPES (pH 7.2)] and incubated in the same buffer for 10 min at 37°C in the presence or absence of the indicated reagent(s). Adenosine uptake was initiated by adding [^3H]adenosine at the indicated concentration (0.5 µCi/mmol) at 37°C. At the end of the incubation, cells were placed on ice, washed twice with ice-cold Krebs Ringer-Henseleit buffer to remove free [^3H]adenosine, lysed with 1% Triton X-100, and added to scintillation vials to count the radioactivity. Non-specific uptake was determined as the uptake performed in the presence of 100 µM adenosine, and was subtracted from the total adenosine uptake.

Another series has as its system R6/2 mice. Put plainly: Survival of R6/2 mice. It counts as in vivo. Particulars: 0.05 mg/ml in drinking water, n = 11. From the text:
Male R6/2 mice and littermate controls were originally obtained from Jackson Laboratories (Bar Harbor, ME, USA), and mated to female control mice (B6CBAFI/J). Offspring were identified by a polymerase chain reaction (PCR) genotyping technique of genomic DNA extracted from tail tissues using primers located in the transgene (5′-[…]-3′ and 5′-[…]- AGGAG-3′) to ensure that the number of CAG repeats remained approximately 150. In total, 211 R6/2 transgenic mice were used in this study. Animals were housed at the Institute of Biomedical Sciences Animal Care Facility under a 12-h light/dark cycle. Body weights of mice were recorded once daily. Animal experiments were performed under protocols approved by the Academia Sinica Institutional Animal Care and Utilization Committee, Taipei, Taiwan.
Supplementary file pone.0020934.s005.tif: Figure S5 Effect of T1-11 on the shorten lifespan and enlarged ventricle of R6/2 mice. Animals were given the vehicle (1% DMSO; CON) or T1-11 (0.05 mg/ml)-containing drinking water from the age of 7 weeks. (A) Survival was assessed. Specific comparison to R6/2 mice treated with the vehicle (p = 0.306; Mantel-Cox test). (B) Five weeks after T1-11 treatment, 3D-lMRI was performed to determine the ventricle-to-brain ratio of the indicated animals as described. * p<0.05. (TIF) Click here for additional data file.

[8] abbreviates: n.s. = not significant, no significant binding at 10 µM.

Structures are written as SMILES.

T13 sequence (O54698 whole entry): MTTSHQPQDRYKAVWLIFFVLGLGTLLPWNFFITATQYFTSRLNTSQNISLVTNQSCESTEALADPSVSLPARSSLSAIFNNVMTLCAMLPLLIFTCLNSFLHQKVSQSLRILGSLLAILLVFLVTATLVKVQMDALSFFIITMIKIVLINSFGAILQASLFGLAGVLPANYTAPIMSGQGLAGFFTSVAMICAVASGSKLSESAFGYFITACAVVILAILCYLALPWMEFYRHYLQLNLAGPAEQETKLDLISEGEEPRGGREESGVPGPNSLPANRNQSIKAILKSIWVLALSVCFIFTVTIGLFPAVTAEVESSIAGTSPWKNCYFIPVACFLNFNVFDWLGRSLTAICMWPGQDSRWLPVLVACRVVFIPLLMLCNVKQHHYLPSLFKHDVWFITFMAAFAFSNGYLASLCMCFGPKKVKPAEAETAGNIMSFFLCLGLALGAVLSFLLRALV
T4 sequence (P30550 whole entry): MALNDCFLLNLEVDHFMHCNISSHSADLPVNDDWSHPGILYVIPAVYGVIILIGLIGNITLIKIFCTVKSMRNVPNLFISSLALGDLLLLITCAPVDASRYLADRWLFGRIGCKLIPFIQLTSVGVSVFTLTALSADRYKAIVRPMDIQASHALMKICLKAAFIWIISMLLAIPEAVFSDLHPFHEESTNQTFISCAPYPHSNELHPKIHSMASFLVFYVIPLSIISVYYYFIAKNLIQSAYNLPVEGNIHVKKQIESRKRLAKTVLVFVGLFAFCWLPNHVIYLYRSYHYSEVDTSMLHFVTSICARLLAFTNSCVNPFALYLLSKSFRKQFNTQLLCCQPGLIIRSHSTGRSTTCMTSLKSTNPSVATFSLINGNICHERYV
T8 sequence (Q12809 whole entry): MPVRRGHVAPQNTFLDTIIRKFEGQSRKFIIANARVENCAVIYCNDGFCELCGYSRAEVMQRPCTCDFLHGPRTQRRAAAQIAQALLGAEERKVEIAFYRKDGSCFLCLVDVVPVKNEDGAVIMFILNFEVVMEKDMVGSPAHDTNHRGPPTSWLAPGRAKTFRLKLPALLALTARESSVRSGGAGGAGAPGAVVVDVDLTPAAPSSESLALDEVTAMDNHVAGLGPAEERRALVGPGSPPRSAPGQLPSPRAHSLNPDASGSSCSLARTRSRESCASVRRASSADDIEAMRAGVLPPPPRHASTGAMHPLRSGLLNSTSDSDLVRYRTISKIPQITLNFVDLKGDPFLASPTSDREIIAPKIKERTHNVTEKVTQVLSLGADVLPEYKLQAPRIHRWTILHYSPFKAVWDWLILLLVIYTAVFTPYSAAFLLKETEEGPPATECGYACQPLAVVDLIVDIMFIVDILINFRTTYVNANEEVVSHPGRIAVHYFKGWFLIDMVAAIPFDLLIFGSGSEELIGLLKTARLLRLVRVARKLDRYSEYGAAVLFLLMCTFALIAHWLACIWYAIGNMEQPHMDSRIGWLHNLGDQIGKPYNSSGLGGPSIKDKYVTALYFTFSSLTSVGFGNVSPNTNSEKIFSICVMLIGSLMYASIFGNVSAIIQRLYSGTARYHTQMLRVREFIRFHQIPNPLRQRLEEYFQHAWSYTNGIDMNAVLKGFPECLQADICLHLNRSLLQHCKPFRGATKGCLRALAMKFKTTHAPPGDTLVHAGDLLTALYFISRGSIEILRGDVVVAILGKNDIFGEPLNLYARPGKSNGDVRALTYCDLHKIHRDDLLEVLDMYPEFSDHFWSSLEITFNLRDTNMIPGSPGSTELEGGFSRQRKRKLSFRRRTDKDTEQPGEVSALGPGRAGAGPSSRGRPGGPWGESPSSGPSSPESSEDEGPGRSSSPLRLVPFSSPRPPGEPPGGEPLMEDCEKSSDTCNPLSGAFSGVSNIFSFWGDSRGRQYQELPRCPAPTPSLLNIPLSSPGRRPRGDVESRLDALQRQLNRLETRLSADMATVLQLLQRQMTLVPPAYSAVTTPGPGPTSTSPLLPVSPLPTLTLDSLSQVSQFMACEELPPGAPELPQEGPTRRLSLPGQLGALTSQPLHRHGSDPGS

Consider `OC[C@H]1O[C@@H](n2cnc3c(NCc4ccc(O)cc4)ncnc32)[C@H](O)[C@@H]1O` [T1-11, N ^6-(4-hydroxybenzyl)adenine riboside], for which the inhibition (commonly the change of the read-out against control, counted positive when it falls) at 10 µM on A2B adenosine receptor (10 μM T1-11, n 2) was 0%; on Angiotensin AT2 it was 3%; on APJ it was 21%; on Bombesin BB2, 3%; on Endothelin ETB it was 2%; at Neuromedin U NMU2 it was 5%. Further, the inhibition at 10 µM is -7% at Orexin OX 2; -2% at hERG potassium channel; 1% in [5]; -3% at Tachykinin NK3; -10% at Transporter, Choline; 6% on Urotensin II. Also, at A2B adenosine receptor (setting [8]), the IC50 result is “n.s”. The Ki result at A2B adenosine receptor (setting [8]) was “n.s”. Also, the % Inhibition (in general, the relative decrease from the control value, in per cent) is -4% in series [1]; -2% with Colchicine; 6% in [2]; -13% with Opiate, Non-Selective; 26% in the series on Phosphodiesterase PDE1 [3]; 17% in the series on Phosphodiesterase PDE1 [4]. Besides, the “% Inhibition” value in series [6] is recorded as 10%. Also, in series [7] (Adenosine transporter (ENT1), suppressed the uptake of adenosine), the Function result is reported as “inhibitor”. Besides, the “Inhibition of adenosine uptake” value in series [7] (PC12 cells) is listed as “inhibited adenosine uptake by PC12 cells in a dose-dependent manner”. In addition, the Mean survival time in the series on R6/2 mice was 103.3 ± 3.9 days.
